Measurements: patent publication US20120064513A1, “Cell Sensor, And Monitoring Method Using Same For The Real-Time Monitoring Of Cell Capacitance” (Industry-Acaddemic Cooperation Foundation, Yonsei …, priority 2009, published 2012)

B1: TRAIL: cell death-inducing agent, TRAIL (TNF related apoptosis inducing ligand) (protein, UniProt P50591 1-281, looked up)
Tumor necrosis factor ligand …: MAMMEVQGGPSLGQTCVLIVIFTVLLQSLCVAVTYVYFTNELKQMQDKYSKSGIACFLKEDDSYWDPNDEESMNSPCWQVKWQLRQLVRKMILRTSEETISTVQEKQQNISPLVRERGPQRVAAHITGTRGRSNTLSSPNSKNEKALGRKINSWESSRSGHSFLSNLHLRNGELVIHEKGFYYIYSQTYFRFQEEIKENTKNDKQMVQYIYKYTSYPDPILLMKSARNSCWSKDAEYGLYSIYQGGIFELKENDRIFVSVTNEHLIDMDHEASFFGAFLVG

Tested on: HEP1 cell highly expressing CAR (coxsackie and adenovirus receptor)
Assay: real-time monitoring of cell capacitance with the cell sensor, HEP1 cells
Type: cell-based
Excerpt: The cell sensor 100 is connected to an LCR meter to measure capacitance, thereby monitoring potential changes of the cell 200 in real time. At this time, 10 mV of AC voltage at a frequency of 3 KHz is applied to the cell sensor 100. In this regard, the frequency of AC voltage applied to the cell sensor 100 may vary depending on the gap size between the first electrode 121 and the second electrode 122, and any frequency other than 3 KHz is also possible, as long as it is a low frequency.
A method for monitoring a cell condition in real time using the cell sensor according to the preferred embodiment of the present invention is as follows.
First, the aforementioned cell sensor is fabricated. The fabricated electrode is sterilized using autoclave equipment and ethanol, and then the well made of acryl or PDMS is attached on the electrode for cell culture.
Next, cells grown to a predetermined density are harvested with trypsin-EDTA, and introduced and attached onto the gap area between the electrodes using a pipette.
Subsequently, the cell-loaded electrodes are placed in a 5% CO2 cell culture incubator at 37° C. and incubated for 12 hrs, in order to tightly attach the cells onto the gap between the electrodes. During incubation, the cells are observed under an optical microscope, whether their conditions are suitable for the experiment.
Thereafter, the fluidic channel is mounted onto the electrodes where the cells are tightly attached, and is fixed on the stage of an optical microscope, of which the bottom is maintained at 37° C. Then, a cell culture media and at least one of biomolecules, cell death-inducing agents and metal particles for observation of endocytosis or adsorption is introduced through the inlet of the fluidic channel. […]
During the cell cultivation, capacitance between the first electrode and the second electrode is measured in real time, and thus endocytosis of the biomolecules into the cells through the cell surface receptor or adsorption is monitored in real time.

[1] = HEP1 cells, pretreatment then virus 1*10^5 per chamber

Row | Molecule | capacitance after the initial peak, virus after pretreatment of the cells [1] | initial capacitance peak on virus endocytosis after pretreatment of the cells [1] | cell capacitance during cell death by cell death-inducing agent (HEP-1 cells, final concentration 50 ng/ml)
1 | NC(=O)c1ncn([C@@H]2O[C@H](CO)[C@@H](O)[C@H]2O)n1 [Ribavirin] | the capacitance after the peak decreases | the initial peak appears | 
2 | B1 |  |  | capacitance decreases during cell death
